According to patent US8889671B2, “Compounds and methods for treating bacterial infections” (AstraZeneca AB, priority 2013, dated 2014):

Biological target: Escherichia coli DNA gyrase A/B tetramer (Escherichia coli (strain K12), UniProt P0AES4+P0AES6)
Assay: DNA gyrase supercoiling activity fluorescence polarisation assay
Format: biochemical
Settings: Eco Gyr FP Mean IC50, E. coli DNA gyrase supercoiling, 0.3 mM ATP
How it was run: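 IC50 derived by nonlinear regression from BODIPY-FL fluorescence anisotropy, read 60 min after quenching with labelled triplex-forming probe (pH 3.5). Reaction: 5 nM gyrase tetramer, 130 micrograms/mL relaxed plasmid, 0.3 mM ATP, 4 mM MgCl2, pH 7.5, typically 30 min at ambient temperature, 5-10 compound concentrations.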

**Q.** Which IC50 does the source give for `C[C@@H]1CN2c3c(cc4c(N5C(=O)OC[C@@H]5C)noc4c3F)CC3(C(=O)NC(=O)NC3=O)[C@H]2[C@H](C)O1` [Example 5, (2R,4S,4aS)-11-Fluoro-2,4-dimethyl-8-[(4S)-4-methyl-2-oxo-1,3-oxazolidin-3-yl]-1,2,4,4a-tetrahydro-2′H,6H-spiro[1,4-oxazino[4,3-a][1,2]oxazolo[4,5-g]quinoline-5,5′-pyrimidine]-2′,4′,6′(1′H,3′H)-trione] here?
**A.** 169 nM
